In patent US20230331691A1, “TREPROSTINIL DERIVATIVE COMPOUNDS AND METHODS OF USING SAME” (CORSAIR PHARMA, INC., priority 2013, published 2023):

What was measured:
[1] = Human hepatocyte stability assay (Test 4); assay type: in vitro ADME; conditions: cryopreserved human hepatocytes; human hepatocytes 0.5 million cells/mL, 0.5 uM test compound, 37° C., up to 240 minutes; read-out: Test 4 T½
Description: (Test 4) Human hepatocyte stability assay was conducted by incubating 0.5 uM test compound at 37° C. for up to 240 minutes. Cryopreserved human hepatocytes were obtained from Celsis IVT ( Baltimore, Maryland). Cells were thawed according to vendor’s instructions and were suspended in William’s Medium E to 0.5 million cells/mL. Test compounds were spiked into the cell suspension to initiate the reactions. At 0, 10, 30, 60, 120 and 240 min., an aliquot was taken, quenched with internal standard containing stop solution. After incubation, the samples were analyzed by LC-MS/MS. Peak area ratios of analyte to internal standard were used to calculate the intrinsic clearance. The intrinsic clearance (CLint) was determined from the first order elimination constant by non-linear regression. Formation of the active drug Compound A over the time course was also monitored by LC-MS/MS analysis.

[2] = Human liver microsomal stability assay (Test 1); assay type: in vitro ADME; conditions: human liver microsomes, 0.5 uM test compound, 37° C., up to 45 minutes, pH 7.4, NADPH generating system; read-out: Test 1 T½
Description: (§1) (Test 1) Human liver microsomal stability assay was conducted by incubating 0.5 uM test compounds at 37° C. for up to 45 minutes in 50 mM of potassium phosphate buffer (pH 7.4) containing 0.5 mg of microsomal protein and 50 µL of NADPH generating system (7.8 mg of glucose 6-phosphate, 1.7 mg of NADPH and 6 U of glucose 6-phosphate dehydrogenase per mL in 2% w/v of sodium bicarbonate). At 0, 5, 15, 30 and 45 min., an aliquot was taken, quenched with internal standard containing stop solution. No co-factor controls at 45 minutes were also prepared. After incubation, the samples were analyzed by LC-MS/MS. Peak area ratios of analyte to internal standard were used to calculate the intrinsic clearance. The intrinsic clearance (CLint) was determined from the first order elimination constant by non-linear regression. Formation of the active drug Compound A over the time course was also monitored by LC-MS/MS analysis.

[3] = Human plasma stability assay (Test 2); assay type: in vitro ADME; conditions: heparinated human plasma, 0.5 uM test compound, 37° C., up to 120 minutes; read-out: Test 2 T½
Description: (Test 2) Human plasma stability assay was conducted by incubating 0.5 uM test compounds at 37° C. for up to 120 minutes in heparinated human plasma. At 0, 5, 15, 30, 60 and 120 […] min., an aliquot was taken, quenched with internal standard containing stop solution. After incubation, the samples were analyzed by LC-MS/MS. Peak area ratios of analyte to internal standard were used to calculate the half-life. Formation of the active drug Compound A over the time course was also monitored by LC-MS/MS analysis.

[4] = Human skin homogenate stability assay (Test 3); assay type: in vitro ADME; conditions: 0.5 uM test compound, 37° C., up to 45 minutes, pH 7.4, NADPH generating system, read-out: Test 3 T½
Description: as §1, with “3)” for “1)”, “skin homogenate” for “liver microsomal”, “conducted in a similar way as the human liver microsomal stability assay,” for “conducted”, “human skin homogenate” for “microsomal”

[5] = treprostinil as the free acid, cited from earlier work

| SMILES | half-life at 0.5 uM [1] [min] | half-life at 0.5 uM [2] [min] | half-life at 0.5 uM [3] [min] | half-life at 0.5 uM [4] [min] | absolute oral bioavailability ([5]; oral) | systemic half life ([5]; due to significant metabolism) |
| --- | --- | --- | --- | --- | --- | --- |
| CCCCC[C@H](O)CC[C@@H]1[C@H]2Cc3cccc(OCC(=O)NCC4CC4)c3C[C@H]2C[C@H]1O [Compound 2, N-Cyclopropylmethyl-2-[2-hydroxy-1-(3-hydroxy-octyl)-2,3,3a,4,9,9a-hexahydro-1H-cyclopenta[b]naphthalen-5-yloxy]-acetamide] | 31 to 60 | < 15 | > 60 | – | – | – |
| CCCCC[C@H](O)CC[C@@H]1[C@H]2Cc3cccc(OCC(=O)N(C)CC(=O)OC)c3C[C@H]2C[C@H]1O [Compound 13, ({2-[2-Hydroxy-1-(3-hydroxy-octyl)-2,3,3a,4,9,9a-hexahydro-1H-cyclopenta[b]naphthalen-5-yloxy]-acetyl}-methyl-amino)-acetic acid methyl ester] | < 15 | < 15 | > 60 | – | – | – |
| CCCCC[C@H](O)CC[C@@H]1[C@H]2Cc3cccc(OCC(=O)O)c3C[C@H]2C[C@H]1O [treprostinil] | – | – | – | – | less than 10% | very short |

Continued, in another order:

| half-life at 0.5 uM [1] [min] | half-life at 0.5 uM [2] [min] | half-life at 0.5 uM [3] [min] | half-life at 0.5 uM [4] [min] | SMILES | absolute oral bioavailability ([5]; oral) | systemic half life ([5]; due to significant metabolism) |
| --- | --- | --- | --- | --- | --- | --- |
| 15 to 30 | 15 to 30 | > 60 | – | CCCCC[C@H](O)CC[C@@H]1[C@H]2Cc3cccc(OCC(=O)NCCO)c3C[C@H]2C[C@H]1O [Compound 7, N-(2-Hydroxy-ethyl)-2-[2-hydroxy-1-(3-hydroxy-octyl)-2,3,3a,4,9,9a-hexahydro-1H-cyclopenta[b]naphthalen-5-yloxy]-acetamide] | – | – |
| < 15 | < 15 | > 60 | > 60 | CCCCC[C@H](O)CC[C@@H]1[C@H]2Cc3cccc(OCC(=O)NCC(F)(F)F)c3C[C@H]2C[C@H]1O [Compound 14, 2-[2-Hydroxy-1-(3-hydroxy-octyl)-2,3,3a,4,9,9a-hexahydro-1H-cyclopenta[b]naphthalen-5-yloxy]-N-(2,2,2-trifluoro-ethyl)-acetamide] | – | – |
